In patent US20060229208A1, “Use of acyl cyclohexandione derivatives in conjunction with ethephon for treating pomaceous fruit” (BASF AKTIENGESELLSCHAFT, priority 2003, published 2006):

Assays:
pear trees = conditions: cited from earlier work
[1] = tested on: pome fruit, specifically apples and pears; experiment: Applicant's experiments on floral development in the year after treatment with acylcyclohexanedione growth regulators; format: in vivo
Excerpt: Thus, D. Sugar, D. C. Elfving and E. A. Mielke report in Acta Hort. […] In the most extreme case, no floral development at all takes place in the year after the treatment.

[2] = tested on: 12-year-old pear trees cv. "Conference" on BA rootstock; experiment: Flowering behavior in pears after treatment with prohexadione-calcium and ethephon (inflorescence count about one year after first application); format: in vivo
Procedure: 1. Flowering Behavior in Pears after Treatment with Prohexadione-calcium and Ethephon
12-year-old pear trees cv. “Conference” on BA rootstock at two different locations were treated first with prohexadione-calcium alone and secondly with a combination of prohexadione-calcium and ethephon. To this end, 4 groups of 5 trees each, which were uniformly distributed in an orchard, were sprayed with an active-ingredient-comprising spray mixture to run-off point (approx. 1000 l/ha). Three applications at intervals of approximately one month were carried out at the first location. At the second location, prohexadione-calcium was applied four times to a part of the groups of trees and three times to another part, the application interval being in each case approximately two weeks. The combination of prohexadione-calcium and ethephon was applied twice, with in each case one application with prohexadione-calcium alone being carried out before and after the combined application. Approximately one year after the first application, the number of inflorescences of untreated trees, of those which have been treated exclusively with prohexadione-calcium and of trees which had been treated with a combination of prohexadione-calcium and ethephon were counted and compared with each other.

Row | Molecule | Subsequent flowering (pear trees) | Floral development in the year after the treatment [1] | Flowering in the subsequent year, April 2003 ([2]; Location 1, ProCa alone 150 g/ha on 15th April, 14th May, 16th June 2002, total 450 g/ha, untreated 183) | Flowering in the subsequent year, April 2003 ([2]; Location 2, ProCa alone four applications 120/87/87/95 g/ha (12th April, 3rd, 15th, 30th May 2002), total 389 g/ha, untreated 250) | Flowering in the subsequent year, April 2003 ([2]; Location 2, ProCa alone three applications 120/87/87 g/ha (12th April, 3rd, 15th May 2002), total 294 g/ha, untreated 250) | Floral development in the year following the treatment (summary in words) ([2]; pear trees, Tables 1 and 2)
1 | prohexadione-calcium [ProCa] | reduced subsequent flowering | markedly reduced floral development | 137 number of inflorescences/tree | 157 number of inflorescences/tree | 152 number of inflorescences/tree | reduced floral development
2 | O=C1CC(C(=O)O)CC(=O)C1=C(O)C1CC1 (centres unmarked) [trinexapac] | – | markedly reduced floral development | – | – | – | –
3 | CCOC(=O)C1CC(=O)C(=C(O)C2CC2)C(=O)C1 (centres unmarked) [trinexapac-ethyl] | – | markedly reduced floral development | – | – | – | –
